According to PubChem BioAssay AID330 (DTP/NCI, 2004):
Values joined by “and” are separate entries in the source; they are usually repeats but may differ in a detail not shown here. Equal values may be shown once. Inconclusive results and toxic doses are left out.

Test system: P388 leukemia ip, CD2F1 mice, survival T/C
Assay: NCI In Vivo Anticancer Drug Screen. Data for tumor model P388 Leukemia (intraperitoneal) in CD2F1 (CDF1) mice
Settings: endpoint: median survival time, higher = longer survival
In short: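 Mice carrying the transplanted tumor received test compound or vehicle. Survival was recorded in each group, and the value is the treated-group measurement divided by that of the vehicle-treated control group.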

[1] = dose: 60.0 mg/kg/injection, schedule: Q01DX005 (ip), vehicle: Klucel (hydroxypropylcellulose) (HPC)
[2] = dose: 120.0 mg/kg/injection, schedule: Q01DX005 (ip), vehicle: Klucel (hydroxypropylcellulose) (HPC)
[3] = dose: 60.0 mg/kg/injection, schedule: Q01DX005 (ip), vehicle: saline with Tween-80
[4] = dose: 120.0 mg/kg/injection, schedule: Q01DX005 (ip), vehicle: saline with Tween-80
[5] = dose: 240.0 mg/kg/injection, schedule: Q01DX005 (ip), vehicle: saline with Tween-80
[6] = dose: 50.0 mg/kg/injection, schedule: Q01DX005 (ip), vehicle: Klucel (hydroxypropylcellulose) (HPC)
[7] = dose: 100.0 mg/kg/injection, schedule: Q01DX005 (ip), vehicle: Klucel (hydroxypropylcellulose) (HPC)
[8] = dose: 200.0 mg/kg/injection, schedule: Q01DX005 (ip), vehicle: Klucel (hydroxypropylcellulose) (HPC)
[9] = dose: 15.0 mg/kg/injection, schedule: Q01DX005 (ip), vehicle: saline with Tween-80
[10] = dose: 30.0 mg/kg/injection, schedule: Q01DX005 (ip), vehicle: saline with Tween-80
[11] = dose: 6.25 mg/kg/injection, schedule: Q01DX009 (ip), vehicle: saline with Tween-80
[12] = dose: 12.5 mg/kg/injection, schedule: Q01DX009 (ip), vehicle: saline with Tween-80
[13] = dose: 25.0 mg/kg/injection, schedule: Q01DX009 (ip), vehicle: saline with Tween-80
[14] = dose: 100.0 mg/kg/injection, schedule: Q01DX005 (ip), vehicle: saline with Tween-80
[15] = dose: 50.0 mg/kg/injection, schedule: Q01DX009 (ip), vehicle: Klucel (hydroxypropylcellulose) (HPC)
[16] = dose: 240.0 mg/kg/injection, schedule: Q01DX005 (ip), vehicle: Klucel (hydroxypropylcellulose) (HPC)
[17] = dose: 50.0 mg/kg/injection, schedule: Q01DX009 (ip), vehicle: saline with Tween-80
[18] = dose: 100.0 mg/kg/injection, schedule: Q01DX009 (ip), vehicle: saline with Tween-80
[19] = dose: 200.0 mg/kg/injection, schedule: Q01DX009 (ip), vehicle: saline with Tween-80

O=C1c2ccccc2C(=O)c2c1cn1c2Cc2ccccc2C1
T/C (dose: 30.0 mg/kg/injection, schedule: Q01DX005 (ip), vehicle: Klucel (hydroxypropylcellulose) (HPC)): 103 % of control and 97 % of control
T/C [1]: 113 % of control and 94 % of control
T/C [2]: 103 % of control and 113 % of control and 96 % of control
T/C (dose: 0.25 ml/mouse/injection, schedule: Q01DX005 (ip), vehicle: other): 107 % of control
T/C (dose: 0.5 ml/mouse/injection, schedule: Q01DX005 (ip), vehicle: other): 106 % of control

O/N=C(\c1ccccc1)C1c2ccccc2-c2ccccc21
T/C [3]: 94 % of control
T/C [4]: 94 % of control
T/C [5]: 94 % of control

COc1ccc2nc(-c3ccc(Cl)cc3)cc(C(=O)O)c2c1
T/C [6]: 99 % of control
T/C [7]: 100 % of control
T/C [8]: 100 % of control

Cc1ccc(C(=Nc2ccccc2Cl)N(O)c2ccccc2)cc1
T/C [6]: 107 % of control
T/C [7]: 102 % of control
T/C [8]: 95 % of control

CNc1nc2cc(OC)c(OC)cc2c(=O)[nH]1
T/C [9]: 98 % of control
T/C [10]: 94 % of control
T/C [3]: 91 % of control and 98 % of control
T/C [4]: 100 % of control

O=C(c1ccncc1)c1cc(Cl)c(Cl)cc1Cl
T/C (dose: 50.0 mg/kg/injection, schedule: Q04DX002 (ip), vehicle: saline with Tween-80): 102 % of control
T/C (dose: 100.0 mg/kg/injection, schedule: Q04DX002 (ip), vehicle: saline with Tween-80): 93 % of control
T/C (dose: 200.0 mg/kg/injection, schedule: Q04DX002 (ip), vehicle: saline with Tween-80): 111 % of control

O=[N+]([O-])c1cccc(C2=NON(c3ccccn3)C3C=CC=CN23)c1 (configuration not stated)
T/C [3]: 94 % of control
T/C [4]: 90 % of control
T/C [5]: 92 % of control

C[Si](C)(C)CSC#N
T/C (dose: 7.5 mg/kg/injection, schedule: Q01DX005 (ip), vehicle: saline with Tween-80): 97 % of control
T/C [9]: 101 % of control
T/C [10]: 104 % of control

ONC(=Nc1ccc2ccccc2c1)C(=Nc1ccc2ccccc2c1)NO
T/C [6]: 95 % of control
T/C [7]: 90 % of control
T/C [8]: 94 % of control

CCCCCC(C[N+](C)(C)C)C(=O)/C=C/c1ccc(Cl)c(Cl)c1 (configuration not stated)
T/C (dose: 3.12 mg/kg/injection, schedule: Q01DX009 (ip), vehicle: saline with Tween-80): 105 % of control
T/C [11]: 120 % of control
T/C (dose: 6.25 mg/kg/injection, schedule: Q01DX009 (ip), vehicle: saline): 114 % of control
T/C [12]: 101 % of control
T/C (dose: 12.5 mg/kg/injection, schedule: Q01DX009 (ip), vehicle: saline): 114 % of control and 124 % of control
T/C [13]: 111 % of control
T/C (dose: 25.0 mg/kg/injection, schedule: Q01DX009 (ip), vehicle: saline): 110 % of control

CCOC(=O)C(CC(C(=O)O)c1ccccc1)c1ccccc1 (configuration not stated)
T/C [6]: 100 % of control
T/C [7]: 96 % of control
T/C [8]: 96 % of control

CN(CCO)CNC(=O)C1=C(O)C2(O)C(=O)C3=C(O)c4c(O)cccc4C(C)(O)C3CC2C(N(C)C)C1=O (configuration not stated)
T/C [6]: 105 % of control
T/C [7]: 103 % of control
T/C [8]: 100 % of control

CCN(CC)Cc1c(C)[nH]c2cc(Cl)ccc2c1=O
T/C (dose: 100.0 mg/kg/injection, schedule: Q01DX001 (ip), vehicle: saline with Tween-80): 88 % of control

Nc1ncnc2nc(N=Nc3c(O)ccc4ccccc34)[nH]c12
T/C (dose: 50.0 mg/kg/injection, schedule: Q01DX005 (ip), vehicle: saline with Tween-80): 104 % of control
T/C [14]: 93 % of control

Clc1ccc(CSSC(Cl)(Cl)Cl)cc1
T/C (dose: 50.0 mg/kg/injection, schedule: Q01DX005 (ip), vehicle: acetone): 102 % of control
T/C (dose: 100.0 mg/kg/injection, schedule: Q01DX005 (ip), vehicle: acetone): 105 % of control
T/C (dose: 200.0 mg/kg/injection, schedule: Q01DX005 (ip), vehicle: acetone): 107 % of control

Cn1/c(=N\N)sc2ccc(S(=O)(=O)O)cc21
T/C [15]: 97 % of control
T/C (dose: 100.0 mg/kg/injection, schedule: Q01DX009 (ip), vehicle: Klucel (hydroxypropylcellulose) (HPC)): 103 % of control
T/C (dose: 200.0 mg/kg/injection, schedule: Q01DX009 (ip), vehicle: Klucel (hydroxypropylcellulose) (HPC)): 105 % of control

CCOCc1ccc(C(=O)NCCCc2c(-c3ccccc3)nc(N)[nH]c2=O)cc1
T/C (dose: 3.75 mg/kg/injection, schedule: Q01DX005 (ip), vehicle: Klucel (hydroxypropylcellulose) (HPC)): 100 % of control and 103 % of control and 94 % of control
T/C (dose: 7.5 mg/kg/injection, schedule: Q01DX005 (ip), vehicle: Klucel (hydroxypropylcellulose) (HPC)): 93 % of control and 97 % of control
T/C (dose: 15.0 mg/kg/injection, schedule: Q01DX005 (ip), vehicle: Klucel (hydroxypropylcellulose) (HPC)): 89 % of control and 92 % of control and 97 % of control
T/C [16]: 86 % of control

CCOC(=O)c1c(C)c(-c2ccccc2)c(-c2ccccc2)c(C)c1-c1ccccc1
T/C [17]: 97 % of control
T/C [18]: 100 % of control
T/C [19]: 92 % of control

COC(=O)C1(C(=O)Nc2ccccc2)N=N1
T/C [1]: 108 % of control
T/C [2]: 100 % of control
T/C [16]: 103 % of control

CCOC(=O)C1CSC(c2c(CO)cnc(C)c2O)N1 (configuration not stated)
T/C [1]: 100 % of control
T/C [2]: 99 % of control
T/C [16]: 99 % of control

Nc1nc(-c2cc(-c3cccc([N+](=O)[O-])c3Cl)nc(N)n2)cc(-c2cccc([N+](=O)[O-])c2Cl)n1
T/C [3]: 105 % of control
T/C [4]: 101 % of control
T/C [5]: 100 % of control

CCCCCCCCCCCCn1c2nc(=O)[nH]c(=O)c-2nc2ccccc21
T/C (dose: 3.12 mg/kg/injection, schedule: Q01DX005 (ip), vehicle: saline with Tween-80): 97 % of control
T/C (dose: 6.25 mg/kg/injection, schedule: Q01DX005 (ip), vehicle: saline with Tween-80): 97 % of control
T/C (dose: 12.5 mg/kg/injection, schedule: Q01DX005 (ip), vehicle: saline with Tween-80): 90 % of control
T/C [14]: 87 % of control
T/C (dose: 200.0 mg/kg/injection, schedule: Q01DX005 (ip), vehicle: saline with Tween-80): 91 % of control

Nc1c(S)cc(O)c2c1C(=O)c1ccccc1C2=O
T/C [6]: 99 % of control
T/C [7]: 103 % of control
T/C [8]: 107 % of control

CCCCCCCCC(=O)CCCC
T/C [17]: 109 % of control
T/C [18]: 122 % of control
T/C (dose: 100.0 mg/kg/injection, schedule: Q04DX003 (ip), vehicle: saline): 100 % of control
T/C (dose: 200.0 mg/kg/injection, schedule: Q04DX003 (ip), vehicle: saline): 113 % of control

O=[N+]([O-])c1cc(F)cc([N+](=O)[O-])c1O
T/C (dose: 12.5 mg/kg/injection, schedule: Q01DX009 (ip), vehicle: Klucel (hydroxypropylcellulose) (HPC)): 102 % of control
T/C (dose: 25.0 mg/kg/injection, schedule: Q01DX009 (ip), vehicle: Klucel (hydroxypropylcellulose) (HPC)): 102 % of control
T/C [15]: 112 % of control

O=C(NC(=O)c1c(F)cccc1F)Nc1nc2ccccc2s1
T/C [11]: 113 % of control
T/C [12]: 100 % of control
T/C [13]: 105 % of control

CC(=O)[C@H]1CC[C@H]2[C@@H]3CCC4=CC(=O)C=C[C@]4(C)[C@H]3C(=O)C[C@]12C
T/C [18]: 100 % of control
T/C [19]: 100 % of control
T/C (dose: 400.0 mg/kg/injection, schedule: Q01DX009 (ip), vehicle: saline with Tween-80): 100 % of control

Cc1ccc(-c2cs/c(=N\N=C3/CSC(=O)N3Cc3ccccc3)n2-c2ccc(C)cc2)cc1
T/C (dose: 100.0 mg/kg/injection, schedule: Q04DX002 (ip), vehicle: Klucel (hydroxypropylcellulose) (HPC)): 100 % of control
T/C (dose: 200.0 mg/kg/injection, schedule: Q04DX002 (ip), vehicle: Klucel (hydroxypropylcellulose) (HPC)): 107 % of control
T/C (dose: 400.0 mg/kg/injection, schedule: Q04DX002 (ip), vehicle: Klucel (hydroxypropylcellulose) (HPC)): 102 % of control

COC1(CO)C(=O)N(C)CC(=O)N1C (configuration not stated)
T/C (dose: 60.0 mg/kg/injection, schedule: Q01DX005 (ip), vehicle: saline): 106 % of control
T/C (dose: 120.0 mg/kg/injection, schedule: Q01DX005 (ip), vehicle: saline): 106 % of control

Nc1ccc2c(NCCCCCCCCNc3c4ccccc4nc4cc(N)ccc34)c3ccccc3nc2c1
T/C (dose: 1.25 mg/kg/injection, schedule: Q01DX009 (ip), vehicle: other): 158 % of control
T/C (dose: 2.5 mg/kg/injection, schedule: Q01DX009 (ip), vehicle: other): 150 % of control
T/C (dose: 5.0 mg/kg/injection, schedule: Q01DX009 (ip), vehicle: other): 151 % of control
